Calls of active or inactive are those of the source. The calls are words filed in the database; no cut-off is given here.
Tests used:
Mus musculus [1] = assay: Antiarthritic activity in DBA mouse assessed as decrease in collagen/CFA-induced arthritic score at 0.3 mg/kg, po qd administered on day 21 to 34 post collagen/CFA challenge measured on day 35; assay type: functional, organism-based
P2X purinoceptor 7 [2] = biological target: T1, P2X purinoceptor 7 (Mus musculus, UniProt Q9Z1M0); assay: Antagonist activity at P2X7 receptor in C57/bl6 mouse whole blood assessed as reduction in LPS/BzATP-induced IL-1beta release preincubated with LPS-stimulated cells for 30 mins followed by BzATP addition measured after 1.5 hrs by ELISA; assay type: tissue-based
T1 sequence (Q9Z1M0 whole entry): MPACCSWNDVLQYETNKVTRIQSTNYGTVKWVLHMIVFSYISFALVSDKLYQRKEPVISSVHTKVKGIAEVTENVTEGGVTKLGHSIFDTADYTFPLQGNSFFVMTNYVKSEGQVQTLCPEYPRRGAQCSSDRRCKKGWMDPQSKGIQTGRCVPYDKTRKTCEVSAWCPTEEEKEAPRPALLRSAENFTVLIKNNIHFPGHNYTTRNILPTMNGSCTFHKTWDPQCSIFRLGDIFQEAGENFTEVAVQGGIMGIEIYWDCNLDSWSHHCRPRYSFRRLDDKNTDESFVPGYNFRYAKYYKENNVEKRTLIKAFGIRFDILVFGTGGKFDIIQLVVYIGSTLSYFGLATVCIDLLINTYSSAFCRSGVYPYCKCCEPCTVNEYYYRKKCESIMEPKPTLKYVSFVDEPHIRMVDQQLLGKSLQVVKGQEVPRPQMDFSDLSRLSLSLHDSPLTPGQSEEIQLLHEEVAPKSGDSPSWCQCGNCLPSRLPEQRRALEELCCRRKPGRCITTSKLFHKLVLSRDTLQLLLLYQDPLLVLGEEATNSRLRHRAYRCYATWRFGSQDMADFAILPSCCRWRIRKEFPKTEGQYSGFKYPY

P2X purinoceptor 7 [3] = biological target: T2, P2X purinoceptor 7 (Homo sapiens, UniProt Q99572); assay: Antagonist activity at human P2X7 receptor assessed as reduction in calcium flux by FLIPR assay
T2 sequence (Q99572 whole entry): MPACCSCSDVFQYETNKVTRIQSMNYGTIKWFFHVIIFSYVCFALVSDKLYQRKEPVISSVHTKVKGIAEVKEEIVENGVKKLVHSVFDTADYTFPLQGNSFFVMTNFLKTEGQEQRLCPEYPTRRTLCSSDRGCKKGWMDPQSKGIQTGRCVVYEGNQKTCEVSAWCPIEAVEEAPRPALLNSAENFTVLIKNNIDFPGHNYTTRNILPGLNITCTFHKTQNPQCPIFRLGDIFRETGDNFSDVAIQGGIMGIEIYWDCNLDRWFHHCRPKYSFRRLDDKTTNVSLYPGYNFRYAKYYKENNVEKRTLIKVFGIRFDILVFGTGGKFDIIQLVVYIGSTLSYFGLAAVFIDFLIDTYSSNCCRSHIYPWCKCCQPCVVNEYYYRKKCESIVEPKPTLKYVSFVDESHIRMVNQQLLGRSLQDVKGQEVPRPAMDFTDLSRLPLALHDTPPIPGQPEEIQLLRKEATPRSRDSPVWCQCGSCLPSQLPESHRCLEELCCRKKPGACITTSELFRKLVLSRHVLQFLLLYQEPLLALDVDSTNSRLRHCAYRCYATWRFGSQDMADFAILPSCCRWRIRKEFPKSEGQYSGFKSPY

P2X purinoceptor 7 [4] = biological target: T2, P2X purinoceptor 7; assay: Antagonist activity at P2X7 receptor in human whole blood assessed as reduction in LPS/BzATP-induced IL-1beta release preincubated with LPS-stimulated cells for 30 mins followed by BzATP addition measured after 1.5 hrs by ELISA; assay type: tissue-based
P2X purinoceptor 7 [5] = biological target: T1, P2X purinoceptor 7; assay: Antagonist activity at mouse P2X7 receptor assessed as reduction in calcium flux by FLIPR calcium flux assay
Mus musculus [6] = assay: Antiarthritic activity in DBA mouse assessed as decrease in collagen/CFA-induced arthritic score at 30 mg/kg, ip twice per week administered on day 21 post collagen/CFA challenge; assay type: functional, organism-based
Mus musculus [7] = assay: Ex vivo inhibition of P2X7 receptor in C57/bl6 mouse assessed as plasma concentration required to reduce LPS/BzATP-induced IL-1beta release at 50 mg/kg, po measured 2 hrs post dose; assay type: functional, organism-based
Mus musculus [8] = assay: Ex vivo inhibition of P2X7 receptor in po dosed C57/bl6 mouse assessed as reduction in LPS/BzATP-induced IL-1beta release in blood measured 2 hrs post dose; assay type: functional, organism-based
Mus musculus [9] = assay: Ex vivo inhibition of P2X7 receptor in C57/bl6 mouse assessed as plasma concentration required to reduce LPS/BzATP-induced IL-1beta release at 15 mg/kg, po measured 2 hrs post dose; assay type: functional, organism-based
Mus musculus [10] = assay: Ex vivo inhibition of P2X7 receptor in C57/bl6 mouse assessed as plasma concentration required to reduce LPS/BzATP-induced IL-1beta release at 50 mg/kg, po measured 4 hrs post dose; assay type: functional, organism-based
[11] = Drug uptake in C57/bl6 mouse plasma at 50 mg/kg, po after 24 hrs; assay type: ADME, organism-based; conditions: in vivo, BLD = below limit of detection
Mus musculus [12] = assay: Ex vivo inhibition of P2X7 receptor in C57/bl6 mouse assessed as plasma concentration required to reduce LPS/BzATP-induced IL-1beta release at 50 mg/kg, po measured 8 hrs post dose; assay type: functional, organism-based
Mus musculus [13] = assay: Ex vivo inhibition of P2X7 receptor in C57/bl6 mouse assessed as plasma concentration required to reduce LPS/BzATP-induced IL-1beta release at 5 mg/kg, po measured 2 hrs post dose; assay type: functional, organism-based
[14] = Drug uptake in mouse brain at 50 mg/kg, po measured at 4 hrs; assay type: ADME, organism-based; conditions: read-out: Drug uptake
[15] = Plasma concentration in mouse at 50 mg/kg, po measured at 4 hrs; assay type: ADME, organism-based

Question: Which Activity (Mus musculus [1]) does the source give for `C[C@@H]1C[C@H]2[C@@H]3CCC4=CC(=O)C=C[C@]4(C)[C@@]3(F)[C@@H](O)C[C@]2(C)[C@@]1(O)C(=O)CO` here?
Answer: Active

Question: With `O=C(NCC(c1cnc(C(F)(F)F)nc1)N1CCC(F)(F)CC1)c1c(Cl)ccc2nc(NC3CC3)ccc12` (configuration not stated) as the compound, how does the IC50 (P2X purinoceptor 7 [2]) read?
Answer: 631 nM

Question: What about the IC50 (P2X purinoceptor 7 [3]) of the same compound?
Answer: 64 nM

Question: What about the IC50 (P2X purinoceptor 7 [4]) of the same compound?
Answer: 141 nM

Question: And the IC50 (P2X purinoceptor 7 [5])?
Answer: 123 nM

Question: For `O=C(NCC(c1cnc(C(F)(F)F)nc1)N1CCC(F)(F)CC1)c1c(Cl)ccc2nc(N3CCOCC3)ccc12` (configuration not stated), which IC50 (P2X purinoceptor 7 [2]) is on record?
Answer: 631 nM

Question: What about the IC50 (P2X purinoceptor 7 [3]) of the same compound?
Answer: 25 nM

Question: And the IC50 (P2X purinoceptor 7 [4])?
Answer: 376 nM

Question: And the IC50 (P2X purinoceptor 7 [5])?
Answer: 103 nM

Question: With `CNc1ccc2c(C(=O)NCC(c3cnc(C(F)(F)F)nc3)N3CCC(F)(F)CC3)c(Cl)ccc2n1` (configuration not stated) as the compound, how does the IC50 (P2X purinoceptor 7 [3]) read?
Answer: 82 nM

Question: What about the IC50 (P2X purinoceptor 7 [5]) of the same compound?
Answer: 305 nM

Question: With `CN(Cc1cnc2nc(N)nc(N)c2n1)c1ccc(C(=O)N[C@@H](CCC(=O)O)C(=O)O)cc1` as the compound, how does the Activity (Mus musculus [6]) read?
Answer: Active

Question: For `O=C(NCC(c1cnc(C(F)(F)F)nc1)N1CCC(F)(F)CC1)c1c(Cl)ccc2nc(N3CC[C@H](O)C3)ccc12` (some centres not stated), which IC50 (P2X purinoceptor 7 [3]) is on record?
Answer: 151 nM

Question: For `O=C(NCC(c1cnc(C(F)(F)F)nc1)N1CCC(F)(F)CC1)c1c(Cl)ccc2nc(N3CCC(O)CC3)ccc12` (configuration not stated), which IC50 (P2X purinoceptor 7 [3]) is on record?
Answer: 120 nM

Question: Which IC50 (P2X purinoceptor 7 [3]) does the source give for `CN1CCN(c2ccc3c(C(=O)NCC(c4cnc(C(F)(F)F)nc4)N4CCC(F)(F)CC4)c(Cl)ccc3n2)CC1` (configuration not stated) here?
Answer: 85 nM

Question: And the IC50 (P2X purinoceptor 7 [5])?
Answer: 486 nM

Question: Which IC50 (P2X purinoceptor 7 [3]) does the source give for `Nc1ccc2c(C(=O)NCC(c3cnc(C(F)(F)F)nc3)N3CCC(F)(F)CC3)c(Cl)ccc2n1` (configuration not stated) here?
Answer: 9 nM

Question: And the IC50 (P2X purinoceptor 7 [5])?
Answer: 1090 nM

Question: Which results are given for `O=C(NCC(c1cnc(C(F)(F)F)nc1)N1CCC(F)(F)CC1)c1c(Cl)ccc2nc(N3CC[C@@H](O)C3)ccc12` (some centres not stated)?
Answer: Cp (Mus musculus [7]): 23.4 µM; inhibition (Mus musculus [8]): Dose-dependent effect; Cp (Mus musculus [9]): 8.9 µM; Cp (Mus musculus [10]): 11.7 µM; Cp [11]: Bld; Cp (Mus musculus [12]): 4 µM; Cp (Mus musculus [13]): 1.6 µM; IC50 (P2X purinoceptor 7 [2]): 316 nM; IC50 (P2X purinoceptor 7 [3]): 35 nM; IC50 (P2X purinoceptor 7 [4]): 87 nM; IC50 (P2X purinoceptor 7 [5]): 80 nM; concentration at 4 h [14]: 21 ng/mL; concentration at 4 h [15]: 6420 ng/mL

Question: With `O=C(NCC(c1cnc(C(F)(F)F)nc1)N1CCC(F)(F)CC1)c1c(Cl)ccc2nc(NCCO)ccc12` (configuration not stated) as the compound, how does the IC50 (P2X purinoceptor 7 [3]) read?
Answer: 78 nM

— ChEMBL document CHEMBL3856256, “The discovery and preclinical characterization of 6-chloro-N-(2-(4,4-difluoropiperidin-1-yl)-2-(2-(trifluoromethyl)pyrimidin-5-yl)ethyl)quinoline-5-carboxamide based P2X7 antagonists” (Bioorg Med Chem Lett, 2016)
